According to US8299040B2, “Methods for treating cancer targeting transglutaminase” (Board of Regents, The University of Texas System, priority 2006, dated 2012):

Tests used:
[1] = tested on: Bx-PC3, MIAPaCa, MDA-Panc28, Panc1 and Capan-2 cells; test: Growth inhibition in pancreatic cancer cell lines; format: cell-based, human
Protocol: (A) Different pancreatic cancer cell lines were treated with rottlerin (4 μM) for 48 h, and viable cells were detected by proliferation assay using Alamar Blue staining. Bars represent growth inhibition after normalizing untreated cells to 100%. (B) Growth of the indicated cell lines after treatment with rottlerin (4 μM) for 48 and 96 h.
(§1) Pancreatic cell lines MDA-Panc28, Capan-2, Bx-PC3, Panc1 and MIAPaCa were provided by Dr. Shrikant Reddy (M. D. Anderson Cancer Center). MDA-Panc28 and Bx-PC3 cell lines were maintained in RPMI-1640 medium supplemented with 10% fetal calf serum. Panc1 and MIAPaCa cell lines and Capan-2 cells were maintained in DMEM and McCoy's 5A, respectively. All media were supplemented with 10% fetal calf serum. For the cell proliferation experiments, cells were seeded at a density of 1-2×10^5 cells in T-25 tissue culture flasks. Twenty-four hours after the seeding, cells were treated with various concentrations of rottlerin for the indicated periods of time. Adherent cells were collected by trypsinization, and cell numbers were determined using a Neubauer cell counting chamber. All experiments were replicated at least two times.

MDA-Panc28 cells [2] = test: Acidic vesicular organelles / autophagy by acridine orange FACS; format: cell-based, human; conditions: 48 h, flow cytometry; control cells 8%
Protocol: To detect and quantify acidic vesicular organelles, cells were stained with acridine orange as described previously. The number of acridine orange-positive cells was determined by fluorescence-activated cell sorting (FACS) analysis. Cell morphology was examined using phase-contrast and fluorescence microscopy (Nikon, Melville, N.Y., USA) with the cells remaining in their culture flasks.
Exponentially growing untreated MDA-Panc28 cells were plated 24 h before transfection. Plated cells were transfected with double-stranded siRNA targeting TG2 mRNA and control (non-silencing) siRNA (all from Qiagen, Venlo, Netherlands) and/or the green fluorescent protein (GFP) and microtubule-associated protein 1 light chain 3 (LC3) fusion vector (GFP-LC3) using the Qiagen transfection reagent according to the manufacturer's protocol. Two siRNA sequences targeting TG2 were designed using siRNA-designing software (Qiagen). PKCδ siRNA was obtained from Santa Cruz Biotechnology (Santa Cruz, Calif., USA). Untransfected cells and non-silencing control siRNA-transfected cells were used as negative controls. After treatment, the cells were harvested for western blot analysis or FACS analysis to determine whether autophagy had occurred.

MDA-Panc28 cells [3] = test: Growth inhibition in MDA-Panc28 cells; format: cell-based; conditions: Homo sapiens, MDA-Panc-28; 4 μM for 48 h; read-out: inhibition in cell growth
Protocol: as §1

With `CC(=O)c1c(O)c(C)c(O)c(Cc2c(O)c3c(c(C(=O)/C=C/c4ccccc4)c2O)OC(C)(C)C=C3)c1O` [rottlerin] the growth inhibition ([1]; 4 μM for 48 h, five cell lines) was “induced growth inhibition in all five cell lines tested”, the “time course of growth inhibition” value ([1]; 4 μM, 48 and 96 h, MDA-Panc28, Bx-PC3, MIAPaCa) was “time-dependent inhibition in cell growth of all three” and the “percentage of red fluorescein-positive cells (acidic vesicular organelles)” value (MDA-Panc28 cells [2]) was 64%. For the same compound, the inhibition at 4 µM (MDA-Panc28 cells [3]) was 49%.
